Experimental data as given in publication PMC10069231 (RSC Advances, 2023).
Values joined by “and” are separate entries in the source; they are usually repeats but may differ in a detail not shown here. Equal entries are not always repeated. Where two headings read alike, the source gives them in different places.

Key:
[1] = test system: Caco-2 cell line; assay: MTT cytotoxicity assay, Caco-2; conditions: read-out: In vitro cytotoxic activity IC50 Caco-2
[2] = test system: HepG-2 cell line; assay: MTT cytotoxicity assay, HepG-2; assay type: cell-based, human; conditions: read-out: In vitro cytotoxic activity IC50 HepG-2
[3] = biological target: EGFR^Wt (Homo sapiens, UniProt P00533); assay: EGFR kinase assay kit; assay type: biochemical; conditions: for IC50: Enzyme inhibitory activity IC50 EGFR^Wt, average of three independent tests; for inhibition at 10 µM: read-out: EGFR^Wt Inhibitory%
EGFR^Wt, sequence (P00533 25-1210): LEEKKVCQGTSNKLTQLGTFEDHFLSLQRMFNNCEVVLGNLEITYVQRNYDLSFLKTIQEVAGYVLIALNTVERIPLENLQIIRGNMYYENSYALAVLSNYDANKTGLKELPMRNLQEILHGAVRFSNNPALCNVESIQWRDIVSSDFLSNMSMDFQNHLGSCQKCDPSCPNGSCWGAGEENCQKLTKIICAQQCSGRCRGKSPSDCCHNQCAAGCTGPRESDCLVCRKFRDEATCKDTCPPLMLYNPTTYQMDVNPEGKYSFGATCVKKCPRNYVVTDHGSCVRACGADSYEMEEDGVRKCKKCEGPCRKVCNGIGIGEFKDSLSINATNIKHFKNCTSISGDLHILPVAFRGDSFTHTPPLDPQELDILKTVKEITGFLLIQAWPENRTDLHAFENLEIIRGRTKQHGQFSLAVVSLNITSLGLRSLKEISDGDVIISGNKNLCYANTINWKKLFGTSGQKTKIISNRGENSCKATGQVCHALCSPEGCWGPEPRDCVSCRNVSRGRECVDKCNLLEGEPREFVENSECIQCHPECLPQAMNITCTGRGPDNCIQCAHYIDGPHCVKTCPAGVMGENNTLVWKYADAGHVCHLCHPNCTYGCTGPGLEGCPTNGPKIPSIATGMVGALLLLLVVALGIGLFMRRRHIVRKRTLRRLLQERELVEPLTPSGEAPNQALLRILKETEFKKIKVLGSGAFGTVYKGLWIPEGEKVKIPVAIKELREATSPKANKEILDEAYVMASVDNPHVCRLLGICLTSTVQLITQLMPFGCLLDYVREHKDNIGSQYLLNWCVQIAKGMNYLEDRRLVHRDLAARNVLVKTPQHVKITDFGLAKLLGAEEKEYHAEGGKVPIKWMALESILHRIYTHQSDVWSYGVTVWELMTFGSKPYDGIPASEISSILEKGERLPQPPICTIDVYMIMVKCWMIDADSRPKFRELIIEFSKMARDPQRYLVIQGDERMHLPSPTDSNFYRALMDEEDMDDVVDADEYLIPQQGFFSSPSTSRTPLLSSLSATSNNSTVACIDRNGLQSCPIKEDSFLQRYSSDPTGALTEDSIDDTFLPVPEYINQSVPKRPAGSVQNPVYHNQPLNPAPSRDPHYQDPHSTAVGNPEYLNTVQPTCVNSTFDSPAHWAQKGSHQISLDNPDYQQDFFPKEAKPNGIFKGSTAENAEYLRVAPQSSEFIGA

[4] = biological target: VEGFR-2 (Homo sapiens, UniProt P35968); assay: biochemical
VEGFR-2, sequence (P35968 20-1356): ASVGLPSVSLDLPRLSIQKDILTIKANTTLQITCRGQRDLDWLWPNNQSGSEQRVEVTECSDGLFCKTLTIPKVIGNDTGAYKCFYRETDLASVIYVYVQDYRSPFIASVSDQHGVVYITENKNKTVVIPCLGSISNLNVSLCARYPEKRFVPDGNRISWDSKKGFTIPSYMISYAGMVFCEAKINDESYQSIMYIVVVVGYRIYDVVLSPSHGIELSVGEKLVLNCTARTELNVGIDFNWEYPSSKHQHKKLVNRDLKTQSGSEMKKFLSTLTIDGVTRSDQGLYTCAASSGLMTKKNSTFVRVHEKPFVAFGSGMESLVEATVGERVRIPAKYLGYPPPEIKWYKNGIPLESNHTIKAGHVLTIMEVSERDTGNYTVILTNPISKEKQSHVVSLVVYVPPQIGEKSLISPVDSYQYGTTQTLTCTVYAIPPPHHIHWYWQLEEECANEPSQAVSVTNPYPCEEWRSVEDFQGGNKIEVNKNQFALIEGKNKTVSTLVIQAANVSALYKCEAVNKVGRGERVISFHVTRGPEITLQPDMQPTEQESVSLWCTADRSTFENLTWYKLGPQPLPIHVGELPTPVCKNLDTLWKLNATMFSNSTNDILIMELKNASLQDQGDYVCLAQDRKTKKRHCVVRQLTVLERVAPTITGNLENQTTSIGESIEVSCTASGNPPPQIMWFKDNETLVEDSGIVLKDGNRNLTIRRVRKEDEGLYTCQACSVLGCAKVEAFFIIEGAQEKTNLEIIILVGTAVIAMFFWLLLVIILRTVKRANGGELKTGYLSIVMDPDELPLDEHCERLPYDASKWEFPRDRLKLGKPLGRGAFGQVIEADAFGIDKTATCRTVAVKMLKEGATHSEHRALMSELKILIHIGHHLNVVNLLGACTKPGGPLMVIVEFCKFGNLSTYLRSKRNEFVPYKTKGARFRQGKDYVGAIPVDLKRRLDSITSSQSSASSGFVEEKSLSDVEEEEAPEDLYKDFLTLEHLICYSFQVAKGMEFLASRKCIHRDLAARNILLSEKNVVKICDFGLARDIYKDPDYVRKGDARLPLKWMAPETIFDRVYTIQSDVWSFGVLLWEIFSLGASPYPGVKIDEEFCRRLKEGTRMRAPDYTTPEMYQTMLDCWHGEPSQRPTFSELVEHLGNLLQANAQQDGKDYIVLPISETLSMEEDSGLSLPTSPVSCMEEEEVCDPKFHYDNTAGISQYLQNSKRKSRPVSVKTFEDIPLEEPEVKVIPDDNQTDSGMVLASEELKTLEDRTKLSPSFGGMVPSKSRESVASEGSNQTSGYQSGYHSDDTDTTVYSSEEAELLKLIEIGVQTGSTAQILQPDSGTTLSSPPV

[5] = test system: Caco-2 cells; assay: Annexin-V/propidium iodide apoptosis assay; assay type: cell-based, human
[6] = test system: Caco-2 cell line; assay: Flow cytometry cell cycle analysis; assay type: cell-based, human; conditions: Caco-2, treated at IC50 7.83 μM

CCOC(=O)c1ccc(-n2c(C)cc(/C=C/c3ccc(OC)cc3)c(C#N)c2=O)cc1 [Compound 3a, Ethyl (E)-4-(3-cyano-4-(4-methoxystyryl)-6-methyl-2-oxopyridin-1(2H)-yl)benzoate]
IC50 ([1]; Homo sapiens, Caco-2, 24 h): 84.4 ± 4 µM
IC50 ([2]; Homo sapiens, HepG2, 24 h): 78.2 ± 3.8 µM

ethyl 4-(3′,5′-dicyano-2′,6′-dihydroxy-1,3-dioxo-1,3-dihydro-1′H-spiro[indene-2,4′-pyridin]-1′-yl)benzoate [Compound 5]
IC50 ([1]; MTT, 24 h incubation, Caco-2): 9.78 ± 0.7 µM
IC50 ([2]; MTT, 24 h incubation, HepG-2): 10.6 ± 0.8 µM

CCOC(=O)c1ccc(-n2c(C)cc(C)c(C#N)c2=O)cc1 [Compound 2, ethyl 4-(3-cyano-4,6-dimethyl-2-oxopyridin-1(2H)-yl)benzoate]
IC50 ([1]; Homo sapiens, Caco-2, 24 h): 41.5 ± 2.5 µM
IC50 ([2]; Homo sapiens, HepG2, 24 h): 51.6 ± 2.9 µM

CCOC(=O)c1ccc(-n2c(C)cc(/C=C/c3ccc(OCC)cc3)c(C#N)c2=O)cc1 [Compound 3b, Ethyl (E)-4-(3-cyano-4-(4-ethoxystyryl)-6-methyl-2-oxopyridin-1(2H)-yl)benzoate]
IC50 ([1]; Homo sapiens, Caco-2, 24 h): 75.7 ± 3.5 µM
IC50 ([2]; Homo sapiens, HepG2, 24 h): 63.1 ± 3.4 µM

CCOC(=O)c1ccc(-n2c(N)c(C#N)c(CC#N)c(C#N)c2=O)cc1 [Compound 10, ethyl 4-(6-amino-3,5-dicyano-4-(cyanomethyl)-2-oxopyridin-1(2H)-yl)benzoate]
IC50 ([1]; Homo sapiens, Caco-2, 24 h): 37.8 ± 2.3 µM
IC50 ([2]; Homo sapiens, HepG2, 24 h): 25.2 ± 1.9 µM

CCOC(=O)c1ccc(NC(=O)C2=C3C(=Nc4ccccc43)NC2=O)cc1 [Compound 6, ethyl 4-(2-oxo-1,2-dihydropyrrolo[2,3-b]indole-3-carboxamido)benzoate]
IC50 ([1]; Homo sapiens, Caco-2, 24 h): 45.4 ± 2.7 µM
IC50 ([2]; Homo sapiens, HepG2, 24 h): 39.3 ± 2.5 µM

CCOC(=O)C1=C(N)N(c2ccc(C(=O)OCC)cc2)C(O)=C(C#N)C12C(=O)Nc1ccccc12 (stereo not shown) [Compound 8, Ethyl 2′-amino-5′-cyano-1′-(4-(ethoxycarbonyl)phenyl)-6′-hydroxy-2-oxo-1′H spiro[indoline-3,4′-pyridine]-3′-carboxylate]
IC50 ([1]; Homo sapiens, Caco-2, 24 h): 13.6 ± 1.2 µM
IC50 ([2]; Homo sapiens, HepG2, 24 h): 8.42 ± 0.7 µM

CCOC(=O)c1ccc(-n2c(-c3ccc(C)cc3)cc(-c3ccc(O)cc3)c(C#N)c2=O)cc1 [Compound 11, Ethyl 4-(3-cyano-4-(4-hydroxyphenyl)-2-oxo-6-(p-tolyl)pyridin-1(2H)-yl)benzoate]
IC50 ([1]; Homo sapiens, Caco-2, 24 h): 19.2 ± 1.4 µM
IC50 ([2]; Homo sapiens, HepG2, 24 h): 14.9 ± 1.2 µM

COc1cccc2c1C(=O)c1c(O)c3c(c(O)c1C2=O)C[C@@](O)(C(=O)CO)C[C@@H]3O[C@H]1C[C@H](N)[C@H](O)[C@H](C)O1 [Doxorubicin, reference compound]
IC50 [3]: 349 ± 16 nM
inhibition at 10 µM [3]: 77.6%
IC50 ([2]; Homo sapiens, HepG2, 24 h): 4.5 ± 0.2 µM

CCOC(=O)c1ccc(N2C(N)=C(C#N)C3(C(=O)Nc4ccccc43)C(C#N)=C2O)cc1 (stereo not shown) [Compound 7, Ethyl 4-(2′-amino-3′,5′-dicyano-6′-hydroxy-2-oxo-1′H-spiro[indoline-3,4′-pyridin]-1′-yl)benzoate]
IC50 ([1]; Homo sapiens, Caco-2, 24 h): 7.83 ± 0.5 µM
IC50 ([4]; Enzyme inhibitory activity IC50 VEGFR-2, average of three independent tests): 221 ± 9 nM
inhibition at 10 µM ([4]; read-out: VEGFR-2 Inhibitory%): 87%
Early apoptosis, increase compared to the control ([5]; Caco-2, at IC50): 67.60 folds
Late apoptosis, increase compared to the control ([5]; Caco-2, at IC50): 100.11 folds
Apoptosis Late ([5]; Caco-2, at IC50 for 24 h, control 0.17): 17.02%
Apoptosis Early ([5]; Caco-2, at IC50 for 24 h, control 0.33): 22.31%
Necrosis ([5]; Caco-2, at IC50 for 24 h, control 1.42): 3.02%
Apoptosis Total ([5]; Caco-2, at IC50 for 24 h, control 1.92): 42.35%
IC50 [3]: < 250 nM and 124 nM
inhibition at 10 µM [3]: 88.4%
IC50 ([2]; Homo sapiens, HepG2, 24 h): 8.9 ± 0.6 µM
Cell cycle distribution, S phase ([6]; untreated 31.18%): 42.07%
Cell cycle distribution, G0-G1 ([6]; untreated 54.69%): 51.08%
Cell cycle distribution, G2/M ([6]; untreated […]%): 6.85%
